According to PubChem BioAssay (NCI):
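Tested at 5 concentrations; 48 h exposure; 96-well plates; endpoints linearly interpolated, else capped at highest concentration. At the TGI there is no net growth.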

Legend:
Experiment in all cases: NCI-60 cell line screen, 48 h
SK-OV-3 ovarian = system: SK-OV-3 ovarian
SN12C renal = system: SN12C renal
MDA-MB-231 breast = system: MDA-MB-231 breast
786-0 renal = system: 786-0 renal
SK-MEL-5 melanoma = system: SK-MEL-5 melanoma
SF-295 CNS = system: SF-295 CNS
HOP-92 NSCLC = system: HOP-92 NSCLC
UACC-62 melanoma = system: UACC-62 melanoma
RXF 393 renal = system: RXF 393 renal
M14 melanoma = system: M14 melanoma
MALME-3M melanoma = system: MALME-3M melanoma
IGROV1 ovarian = system: IGROV1 ovarian
SF-539 CNS = system: SF-539 CNS
OVCAR-8 ovarian = system: OVCAR-8 ovarian
RPMI-8226 leukemia = system: RPMI-8226 leukemia
LOX IMVI melanoma = system: LOX IMVI melanoma
HCT-116 colon = system: HCT-116 colon
MOLT-4 leukemia = system: MOLT-4 leukemia
HT29 colon = system: HT29 colon
T-47D breast = system: T-47D breast

Compound | TGI (SK-OV-3 ovarian) [µM] | TGI (SN12C renal) [µM] | TGI (MDA-MB-231 breast) [µM] | TGI (786-0 renal) [µM] | TGI (SK-MEL-5 melanoma) [µM] | TGI (SF-295 CNS) [µM] | TGI (HOP-92 NSCLC) [µM] | TGI (UACC-62 melanoma) [µM] | TGI (RXF 393 renal) [µM] | TGI (M14 melanoma) [µM] | TGI (MALME-3M melanoma) [µM] | TGI (IGROV1 ovarian) [µM] | TGI (SF-539 CNS) [µM] | TGI (OVCAR-8 ovarian) [µM] | TGI (RPMI-8226 leukemia) [µM] | TGI (LOX IMVI melanoma) [µM] | TGI (HCT-116 colon) [µM] | TGI (MOLT-4 leukemia) [µM] | TGI (HT29 colon) [µM] | TGI (T-47D breast) [µM]
CN1C(=O)C(O)CC1c1cccc(F)c1 (centres undefined) | > 100 | > 100 | > 100 | > 100 | > 100 | > 100 | > 100 | > 100 | > 100 | > 100 | > 100 | > 100 | > 100 | > 100 | > 100 | > 100 | > 100 | > 100 | > 100 | –
COc1ccc(-c2c(C#N)c(S)n(C3OC(CO)C(O)C(O)C3O)c(=O)c2C#N)cc1 (centres undefined) | > 100 | > 100 | > 100 | > 100 | > 100 | > 100 | – | > 100 | > 100 | > 100 | > 100 | > 100 | > 100 | > 100 | > 100 | > 100 | – | > 100 | > 100 | > 100
CC(C)=CCC/C(C)=C/Cc1c(O)ccc2c1[nH]c1cc(O)c(C)cc12 | > 25 | > 25 | – | > 25 | > 25 | – | > 25 | > 25 | > 25 | > 25 | > 25 | > 25 | 23.8 | > 25 | > 25 | > 25 | > 25 | > 25 | > 25 | –
Cn1c(=O)nc2n(-c3ccc(Cl)cc3Cl)c3ccccc3nc-2c1=O | 72.8 | – | – | – | 3.36 | 10.6 | 9.24 | 6.16 | 15.4 | 4.58 | 3.26 | 27 | 19.3 | 14.1 | > 100 | – | 5.19 | 35.7 | 10.3 | –
CCOC(=O)C(NC(=O)NC(C(=O)OCC)C(=O)OCC)C(=O)OCC | > 100 | > 100 | – | > 100 | > 100 | > 100 | > 100 | > 100 | > 100 | > 100 | > 100 | > 100 | > 100 | > 100 | > 100 | – | > 100 | > 100 | > 100 | –
COC(=O)c1cc(-c2c[nH]cc2C(=O)OCc2ccccc2)cn1S(=O)(=O)c1ccc(C)cc1 | > 100 | > 100 | > 100 | > 100 | > 100 | > 100 | – | > 100 | > 100 | > 100 | > 100 | > 100 | > 100 | > 100 | – | > 100 | > 100 | > 100 | > 100 | > 100
